The values that follow come from patent publication US10000501B2, “Inhibitors of HIF prolyl hydroxylase” (MERCK SHARP & DOHME CORP., priority 2014, dated 2018).

In this assay the target is T1, human HIF-PHD2 (Homo sapiens, UniProt Q9GZT9).
T1 construct: FLAG-tagged full length PHD2 expressed in and purified from baculovirus-infected Sf9 cells; FLAG; made in house; host or cells: baculovirus-infected Sf9 cells
Description: HIF-PHD2 inhibition assay (hydroxylation of HIF-1α peptide, time resolved fluorescence). Type of assay: biochemical. The settings on record: FLAG-tagged full length PHD2; 0.2 μM 2-oxoglutarate, 0.5 μM HIF-1α peptide. The procedure: To each well of a 384-well plate, 1 μL of test compounds in DMSO (final concentration ranging from 0.3 nM to 10 uM) were added into 20 μl of assay buffer (50 mM Tris pH 7.4/0.01% Tween-20/0.1 mg/ml bovine serum albumin/10 μM ferrous sulfate/1 mM sodium ascorbate/20 μg/ml catalase) containing 0.15 μg/ml FLAG-tagged full length PHD2 expressed in and purified from baculovirus-infected Sf9 cells. […] Purif.

One may read the IC50 as the concentration at which inhibition is half-maximal. A higher IC50 goes with weaker potency in that assay.

T1 sequence (Q9GZT9 whole entry): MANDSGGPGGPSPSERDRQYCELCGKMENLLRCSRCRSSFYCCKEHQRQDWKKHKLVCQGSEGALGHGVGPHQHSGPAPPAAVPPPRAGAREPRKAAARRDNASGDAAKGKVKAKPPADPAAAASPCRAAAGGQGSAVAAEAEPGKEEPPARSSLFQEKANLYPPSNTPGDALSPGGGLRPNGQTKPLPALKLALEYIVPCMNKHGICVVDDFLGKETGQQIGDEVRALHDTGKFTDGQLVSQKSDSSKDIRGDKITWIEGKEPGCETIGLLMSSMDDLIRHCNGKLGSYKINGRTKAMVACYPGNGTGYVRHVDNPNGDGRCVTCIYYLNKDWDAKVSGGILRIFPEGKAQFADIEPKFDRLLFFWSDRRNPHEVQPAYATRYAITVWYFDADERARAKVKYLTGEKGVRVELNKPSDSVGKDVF

Molecule `COc1ccc(Cn2c3c(c(O)c(C(=O)NCC(=O)O)c2=O)COCC3)cn1` [Example 30, 2-(4-Hydroxy-1-((6-methoxypyridin-3-yl)methyl)-2-oxo-2,5,7,8-tetrahydro-1H-pyrano[4,3-b]pyridine-3-carboxamido)acetic acid] came in with a concentration for half-maximal inhibition (IC50) of 17.4 nM.
Under `O=C(O)CNC(=O)c1c(O)c2c(n(Cc3cncs3)c1=O)CCOC2` [Example 31, 2-(4-Hydroxy-2-oxo-1-(thiazol-5-ylmethyl)-2,5,7,8-tetrahydro-1H-pyrano[4,3-b]pyridine-3-carboxamido)acetic acid] stands 32.8 nM; under `O=C(O)CNC(=O)c1c(O)c2c(n(Cc3ccn(-c4ccccc4)n3)c1=O)CCOC2` [Example 32, 2-(4-Hydroxy-2-oxo-1-((1-phenyl-1H-pyrazol-3-yl)methyl)-2,5,7,8-tetrahydro-1H-pyrano[4,3-b]pyridine-3-carboxamido)acetic acid], 12.1 nM.
Regarding `CC(C)(O)c1ccc(Cn2c3c(c(O)c(C(=O)NCC(=O)O)c2=O)COCC3)cc1` [Example 33, 2-(4-Hydroxy-1-(4-(2-hydroxypropan-2-yl)benzyl)-2-oxo-2,5,7,8-tetrahydro-1H-pyrano[4,3-b]pyridine-3-carboxamido)acetic acid], the midpoint of inhibition, the IC50, lay at 49.9 nM.
The molecule `NC(=O)c1ccc(Cn2c3c(c(O)c(C(=O)NCC(=O)O)c2=O)COCC3)cc1` [Example 34, 2-(1-(4-Carbamoylbenzyl)-4-hydroxy-2-oxo-2,5,7,8-tetrahydro-1H-pyrano[4,3-b]pyridine-3-carboxamido)acetic acid] gave an IC50 of 29.3 nM.
The figure for `O=C(O)CNC(=O)c1c(O)c2c(n(Cc3csc(C(F)(F)F)n3)c1=O)CCOC2` [Example 35, 2-(4-Hydroxy-2-oxo-1-((2-(trifluoromethyl)thiazol-4-yl)methyl)-2,5,7,8-tetrahydro-1H-pyrano[4,3-b]pyridine-3-carboxamido)acetic acid] is 15.1 nM; for `O=C(O)CNC(=O)c1c(O)c2c(n(-c3ccc(OC(F)(F)F)cc3)c1=O)CCOC2` [Example 36, 2-(4-Hydroxy-2-oxo-1-(4-(trifluoromethoxy)phenyl)-2,5,7,8-tetrahydro-1H-pyrano[4,3-b]pyridine-3-carboxamido)acetic acid] it is 98.8 nM; for `O=C(O)CNC(=O)c1c(O)c2c(n(Cc3ccc(Cl)cc3)c1=O)COCC2` [Example 37, 2-(1-(4-Chlorobenzyl)-4-hydroxy-2-oxo-2,5,6,8-tetrahydro-1H-pyrano[3,4-b]pyridine-3-carboxamido)acetic acid] it is 50.2 nM.
For the molecule `O=C(O)CNC(=O)c1c(O)c2c(n(Cc3ccc(F)cc3F)c1=O)COCC2` [Example 38, 2-(1-(2,4-difluorobenzyl)-4-hydroxy-2-oxo-2,5,6,8-tetrahydro-1H-pyrano[3,4-b]pyridine-3-carboxamido)acetic acid], the concentration for half-maximal inhibition (IC50) is 24.1 nM.
The molecule `CC(C)c1ccc(Cn2c3c(c(O)c(C(=O)NCC(=O)O)c2=O)CCOC3)cc1` [Example 39, 2-(4-hydroxy-1-(4-isopropylbenzyl)-2-oxo-2,5,6,8-tetrahydro-1H-pyrano[3,4-b]pyridine-3-carboxamido)acetic acid] registered an IC50 of 42.2 nM.
In turn, `N#Cc1ccc(Cn2c3c(c(O)c(C(=O)NCC(=O)O)c2=O)CCOC3)cc1` [Example 40, 2-(1-(4-cyanobenzyl)-4-hydroxy-2-oxo-2,5,6,8-tetrahydro-1H-pyrano[3,4-b]pyridine-3-carboxamido)acetic acid] gave an IC50 of 21.8 nM.
Consider `CS(=O)(=O)c1ccc(Cn2c3c(c(O)c(C(=O)NCC(=O)O)c2=O)CCOC3)cc1` [Example 41, 2-(4-hydroxy-1-(4-(methylsulfonyl)benzyl)-2-oxo-2,5,6,8-tetrahydro-1H-pyrano[3,4-b]pyridine-3-carboxamido)acetic acid], for which the IC50 came out at 28.7 nM.
`O=C(O)CNC(=O)c1c(O)c2c(n(Cc3ccc(C(F)(F)F)nc3)c1=O)COCC2` [Example 42, 2-(4-hydroxy-2-oxo-1-((6-(trifluoromethyl)pyridin-3-yl)methyl)-2,5,6,8-tetrahydro-1H-pyrano[3,4-b]pyridine-3-carboxamido)acetic acid] displayed an IC50 of 19.9 nM.
Under `O=C(O)CNC(=O)c1c(O)c2c(n(Cc3cc(F)c(F)cc3F)c1=O)COCC2` [Example 43, 2-(4-hydroxy-2-oxo-1-(2,4,5-trifluorobenzyl)-2,5,6,8-tetrahydro-1H-pyrano[3,4-b]pyridine-3-carboxamido)acetic acid] stands 26.5 nM; under `N#Cc1ccc(Cn2c3c(c(O)c(C(=O)NCC(=O)O)c2=O)CCOC3)c(F)c1` [Example 44, 2-(1-(4-cyano-2-fluorobenzyl)-4-hydroxy-2-oxo-2,5,6,8-tetrahydro-1H-pyrano[3,4-b]pyridine-3-carboxamido)acetic acid], 14.4 nM.
Under `Cc1cc(Cn2c3c(c(O)c(C(=O)NCC(=O)O)c2=O)CCOC3)ccc1C#N` [Example 45, 2-(1-(4-cyano-3-methylbenzyl)-4-hydroxy-2-oxo-2,5,6,8-tetrahydro-1H-pyrano[3,4-b]pyridine-3-carboxamido)acetic acid] stands 90.1 nM.
The figure for `O=C(O)CNC(=O)c1c(O)c2c(n(Cc3ncc(C(F)(F)F)cn3)c1=O)COCC2` [Example 46, 2-(4-hydroxy-2-oxo-1-((5-(trifluoromethyl)pyrimidin-2-yl)methyl)-2,5,6,8-tetrahydro-1H-pyrano[3,4-b]pyridine-3-carboxamido)acetic acid] is 90.1 nM; for `O=C(O)CNC(=O)c1c(O)c2c(n(Cc3ccc(Cl)cc3F)c1=O)COCC2` [Example 47, 2-(1-(4-chloro-2-fluorobenzyl)-4-hydroxy-2-oxo-2,5,6,8-tetrahydro-1H-pyrano[3,4-b]pyridine-3-carboxamido)acetic acid] it is 19.3 nM; for `O=C(O)CNC(=O)c1c(O)c2c(n(Cc3nc4ccccc4s3)c1=O)COCC2` [Example 48, 2-(1-(benzo[d]thiazol-2-ylmethyl)-4-hydroxy-2-oxo-2,5,6,8-tetrahydro-1H-pyrano[3,4-b]pyridine-3-carboxamido)acetic acid] it is 8.9 nM.
For `O=C(O)CNC(=O)c1c(O)c2c(n(Cc3ccc(OC(F)F)cc3)c1=O)COCC2` [Example 49, 2-(1-(4-(difluoromethoxy)benzyl)-4-hydroxy-2-oxo-2,5,6,8-tetrahydro-1H-pyrano[3,4-b]pyridine-3-carboxamido)acetic acid], the half-inhibitory concentration (IC50) came out at 28.6 nM.
`Cn1ccc(Cn2c3c(c(O)c(C(=O)NCC(=O)O)c2=O)CCOC3)n1` [Example 50, 2-(4-hydroxy-1-((1-methyl-1H-pyrazol-3-yl)methyl)-2-oxo-2,5,6,8-tetrahydro-1H-pyrano[3,4-b]pyridine-3-carboxamido)acetic acid]: the IC50 was determined as 55.1 nM.
The figure for `COc1ccc(Cn2c3c(c(O)c(C(=O)NCC(=O)O)c2=O)CCOC3)cc1` [Example 51, 2-(4-hydroxy-1-(4-methoxybenzyl)-2-oxo-2,5,6,8-tetrahydro-1H-pyrano[3,4-b]pyridine-3-carboxamido)acetic acid] is 30.2 nM.
Under `O=C(O)CNC(=O)c1c(O)c2c(n(Cc3ccc(OC(F)(F)F)cc3)c1=O)COCC2` [Example 52, 2-(4-hydroxy-2-oxo-1-(4-(trifluoromethoxy)benzyl)-2,5,6,8-tetrahydro-1H-pyrano[3,4-b]pyridine-3-carboxamido)acetic acid] stands 24.1 nM.
The figure for `O=C(O)CNC(=O)c1c(O)c2c(n(Cc3ccc(F)cc3)c1=O)COCC2` [Example 53, 2-(1-(4-fluorobenzyl)-4-hydroxy-2-oxo-2,5,6,8-tetrahydro-1H-pyrano[3,4-b]pyridine-3-carboxamido)acetic acid] is 29.3 nM; for `O=C(O)CNC(=O)c1c(O)c2c(n(Cc3ccc(F)c(F)c3)c1=O)COCC2` [Example 54, 2-(1-(3,4-difluorobenzyl)-4-hydroxy-2-oxo-2,5,6,8-tetrahydro-1H-pyrano[3,4-b]pyridine-3-carboxamido)acetic acid] it is 30.8 nM; for `CNC(=O)c1ccc(Cn2c3c(c(O)c(C(=O)NCC(=O)O)c2=O)CCOC3)cc1` [Example 55, 2-(4-hydroxy-1-(4-(methylcarbamoyl)benzyl)-2-oxo-2,5,6,8-tetrahydro-1H-pyrano[3,4-b]pyridine-3-carboxamido)acetic acid] it is 21.3 nM.
For the molecule `CC(C)Oc1ccc(Cn2c3c(c(O)c(C(=O)NCC(=O)O)c2=O)CCOC3)cc1` [Example 56, 2-(4-hydroxy-1-(4-isopropoxybenzyl)-2-oxo-2,5,6,8-tetrahydro-1H-pyrano[3,4-b]pyridine-3-carboxamido)acetic acid], the IC50 is 29.1 nM.
Under `N#Cc1cccc(Cn2c3c(c(O)c(C(=O)NCC(=O)O)c2=O)CCOC3)c1` [Example 57, 2-(1-(3-cyanobenzyl)-4-hydroxy-2-oxo-2,5,6,8-tetrahydro-1H-pyrano[3,4-b]pyridine-3-carboxamido)acetic acid] stands 35.2 nM; under `O=C(O)CNC(=O)c1c(O)c2c(n(Cc3ccccc3Cl)c1=O)COCC2` [Example 58, 2-(1-(2-chlorobenzyl)-4-hydroxy-2-oxo-2,5,6,8-tetrahydro-1H-pyrano[3,4-b]pyridine-3-carboxamido)acetic acid], 25.5 nM; under `O=C(O)CNC(=O)c1c(O)c2c(n(Cc3ccccn3)c1=O)COCC2` [Example 59, 2-(4-hydroxy-2-oxo-1-(pyridin-2-ylmethyl)-2,5,6,8-tetrahydro-1H-pyrano[3,4-b]pyridine-3-carboxamido)acetic acid], 44.2 nM.
Under `O=C(O)CNC(=O)c1c(O)c2c(n(Cc3ccncc3)c1=O)COCC2` [Example 60, 2-(4-hydroxy-2-oxo-1-(pyridin-4-ylmethyl)-2,5,6,8-tetrahydro-1H-pyrano[3,4-b]pyridine-3-carboxamido)acetic acid] stands 30.4 nM.
